Laboratory results taken from ChEMBL document CHEMBL1126441, “A novel and selective class of azabicyclic muscarinic agonists incorporating an N-methoxy imidoyl halide or nitrile functionality” (Bioorg Med Chem Lett, 1992).

Assays:
[1] = target: Muscarinic acetylcholine receptor; assay: In vitro inhibition of [3H]quinuclidinyl benzilate (QNB) binding to muscarinic receptors of rat cerebral cortex; format: tissue-based
[2] = target: Muscarinic acetylcholine receptor; assay: In vitro inhibition of oxotremorine-M (OXO-M) binding to muscarinic receptors of rat cerebral cortex; format: tissue-based
[3] = target: Muscarinic acetylcholine receptor (Rattus norvegicus) (UniProt P08482+P08483+P08485+P08911+P10980); assay: Relative affinities compared to oxotremorine-M (OXO-M) and [3H]quinuclidinyl benzilate (QNB) for muscarinic receptors; format: protein assay
[4] = Partition coefficient (logP); format: physicochemical; conditions: octanol/water
[5] = LogD value represents the distribution coefficient at pH 7.3.; format: physicochemical; conditions: octanol/water
[6] = Compound was evaluated for its dissociation constant.; format: ADME
[7] = system: Rattus norvegicus; assay: Effective dose required to cause 50% fall in mean blood pressure (BP) by the compound on iv administration; format: functional
[8] = system: Rattus norvegicus; assay: The effective dose required to produce a change in the mean power spectrum of the EEG equivalent to that of a standard dose (0.32 mg/kg) of arecoline on iv administration; format: functional
[9] = Ratio of 50% fall in mean blood pressure (BP) to rhythmical slow wave activity (RSA) was determined; format: functional

Row | SMILES | IC50 [1] | IC50 [2] | Ratio [3] | logP [4] | logD [5] | pKa [6] | ED50 [7] | ED Arec [8] | Ratio [9]
1 | CO/N=C(\Br)C12CCN(CC1)C2 | 8100 nM | 160 nM | 51 | – | – | – | – | – | –
2 | CO/N=C(\Br)[C@H]1CN2CC[C@H]1C2 | 3000 nM | 59 nM | 51 | – | – | – | – | – | –
3 | CO/N=C(\F)C12CCN(CC1)C2 | 15500 nM | 44 nM | 352 | – | – | – | – | – | –
4 | CO/N=C(\C#N)C12CCCN(CC1)C2 (centres undefined) | 220 nM | 11 nM | – | 1.49 | -0.18 | 8.96 | 0.02 mg/kg | 0.005 mg/kg | 4
5 | CO/N=C(\Br)C12CCCN(CC1)C2 (centres undefined) | 2300 nM | 190 nM | 12 | – | – | – | – | – | –
6 | CO/N=C(\F)[C@H]1CN2CC[C@H]1C2 | 3100 nM | 9 nM | 344 | – | – | – | – | – | –
7 | CO/N=C(\C)C1CN2CCC1CC2 (centres undefined) | – | – | – | 1.88 | -1.09 | 10.3 | > 0.1 mg/kg | 0.31 mg/kg | >0.35
8 | CO/N=C(\C#N)C1CN2CCC1CC2 (centres undefined) | 470 nM | 33 nM | 14 | 1.56 | -0.11 | 8.96 | > 0.56 mg/kg | 0.052 mg/kg | >10.8
9 | CO/N=C(\F)C12CCCN(CC1)C2 (centres undefined) | 2400 nM | 43 nM | 56 | 1.01 | -0.76 | 9.06 | 0.03 mg/kg | 0.012 mg/kg | 2.5
10 | CO/N=C(\Cl)C1CN2CCC1CC2 (centres undefined) | 1100 nM | 69 nM | 16 | – | – | – | – | – | –
11 | CO/N=C(\F)C1CN2CCC1CC2 (centres undefined) | 2000 nM | 34 nM | 65 | – | – | – | – | – | –
12 | CO/N=C(\C)C12CCCN(CC1)C2 (centres undefined) | – | – | – | 1.65 | -1.13 | 10.1 | 0.068 mg/kg | 0.068 mg/kg | 1
13 | CO/N=C(\Cl)C12CCCN(CC1)C2 (centres undefined) | 3000 nM | 72 nM | 42 | 2.12 | 0.18 | 9.24 | 0.32 mg/kg | 0.029 mg/kg | 11
14 | CO/N=C(\C#N)C12CCN(CC1)C2 | 1950 nM | 19 nM | 103 | – | – | – | – | – | –
15 | CO/N=C(\Cl)[C@H]1CN2CC[C@H]1C2 | 3000 nM | 64 nM | 47 | – | – | – | – | – | –
16 | CO/N=C(\Cl)C12CCN(CC1)C2 | 8500 nM | 51 nM | 167 | – | – | – | – | – | –
17 | CO/N=C(\C#N)[C@H]1CN2CCC1C2 (some centres undefined) | 2300 nM | 23 nM | – | – | – | – | – | – | –
